Laboratory results published in publication PMC5896380, “Selective imaging of cathepsin L in breast cancer by fluorescent activity-based probes” (Chemical Science, 2018).

Legend:
cathepsin L = target: T1, cathepsin L (Homo sapiens, UniProt P07711); assay: kobs/I of activity-based probes, cathepsin L; assay type: biochemical; conditions: Fig. 6A; pseudo-first order, probe at least 5-fold excess over cathepsin, 100 μM ACC substrate; pH 5.5, 37 °C; triplicate, SD below 20%
T1 construct: made in house
T1 sequence (P07711 114-333): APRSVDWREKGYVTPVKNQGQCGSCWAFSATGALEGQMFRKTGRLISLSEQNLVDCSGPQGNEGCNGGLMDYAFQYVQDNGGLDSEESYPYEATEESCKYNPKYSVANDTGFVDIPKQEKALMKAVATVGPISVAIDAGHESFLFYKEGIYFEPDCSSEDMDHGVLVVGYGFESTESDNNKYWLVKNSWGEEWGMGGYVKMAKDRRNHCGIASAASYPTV
Protocol: (§1) All kinetic experiments were performed using fMax (Molecular Devices) and CLARIOStar (BMG LABTECH) spectrofluorimeters operating in kinetic mode using 96-well plates. ACC-labeled substrates were screened using 355 nm and 460 nm wavelengths (excitation and emission, respectively). […] The buffer was prepared at room temperature and the enzyme kinetic studies were performed at 37 °C.
(§2) For the kinetic studies, five recombinant human cathepsins (B, L, V, K and S) were expressed and purified and active site titrated using an E64 inhibitor. The kobs/I parameter was measured under pseudo-first order kinetic conditions, as described.[40] The cathepsin of interest was mixed with various concentrations of probe (at least 5-fold excess over cathepsin) and 100 μM ACC-fluorescence substrate. The experiments were repeated at least three times, and the results are presented as an average. The SDs were below 20%.

cathepsin S = target: T2, cathepsin S (Homo sapiens, UniProt P25774); assay: kobs/I of activity-based probes, cathepsin S; assay type: biochemical; conditions: Fig. 6A; pseudo-first order, probe at least 5-fold excess over cathepsin, 100 μM ACC substrate; pH 5.5, 37 °C; triplicate, SD below 20%
T2 construct: made in house
T2 sequence (P25774 115-331): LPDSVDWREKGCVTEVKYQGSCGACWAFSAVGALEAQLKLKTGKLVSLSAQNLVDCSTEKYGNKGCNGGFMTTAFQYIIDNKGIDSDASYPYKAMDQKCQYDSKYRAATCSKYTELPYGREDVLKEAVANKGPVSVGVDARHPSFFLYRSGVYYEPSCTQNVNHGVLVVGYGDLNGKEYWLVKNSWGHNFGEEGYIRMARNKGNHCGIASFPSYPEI
Protocol: as §1, §2

cathepsin K = target: T3, cathepsin K (Homo sapiens, UniProt P43235); assay: kobs/I of activity-based probes, cathepsin K; assay type: biochemical; conditions: Fig. 6A; pseudo-first order, probe at least 5-fold excess over cathepsin, 100 μM ACC substrate; pH 5.5, 37 °C; triplicate, SD below 20%
T3 construct: made in house
T3 sequence (P43235 115-329): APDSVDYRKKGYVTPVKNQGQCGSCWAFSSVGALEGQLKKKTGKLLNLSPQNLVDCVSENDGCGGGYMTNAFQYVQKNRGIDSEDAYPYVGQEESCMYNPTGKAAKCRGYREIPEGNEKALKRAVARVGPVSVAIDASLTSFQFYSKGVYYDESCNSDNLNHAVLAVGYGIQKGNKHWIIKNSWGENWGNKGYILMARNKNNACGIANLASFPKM
Protocol: as §1, §2

[1] = system: cathepsin B in MDA-MB-231 cells; assay: Weighted colocalization of probe with cathepsin B antibody, confocal microscopy; assay type: cell-based, human; conditions: CatB ab (8h), 1 μM probe
Protocol: Glass coverslips 15 mm in diameter were placed in 12-well plates and coated with poly-D-lysine (500 μL, 1 mg mL^–1 in water, Specialty Media) for 30 minutes. The poly-D-lysine was aspirated and the coverslips were washed twice with sterile water and air-dried. Next, low passage MDA-MB-231 cells in DMEM (100 000 cells per mL) were added to wells (1 mL per well) and allowed to attach for 2 hours. Cells were then treated with Cy5-labeled probes (1 μM) for 8 or 24 hours. The control cells were preincubated with E64d for 2 hours. After various incubation times, the medium was removed and the cells were gently washed twice with DPBS (1 mL each). The cells were then fixed with ice-cold methanol (500 μL per well) for 15 minutes at –20 °C. […] Cathepsins L and B were detected by primary goat anti-hCathepsin L (R&D, AF952, 0.2 mg mL^–1, 1 : 200) and goat anti-hCathepsin B (R&D, AF953, 0.2 mg mL^–1, 1 : 80), respectively, in 3% BSA in DPBS (with 0.5% Triton-X, v/v) for 2 hours at room temperature. […] Next, the cells were washed twice with DPBS, and coverslips were mounted using Vectashield mounting medium fluorescence containing DAPI (Vector Lab. H-1000). […] All images were acquired in .tiff format in MetaMorph software or in .lsm format in ZEN software and analyzed using ImageJ and ZEN software. […]

In the case of “Cy5-6-ahx-His-DThr-Phe(F5)-Cys(Bzl)-AOMK [MP-cL3]”, the “kobs/I Cath-L” value (cathepsin L) is reported as 322,000 M^-1s^-1, the “kobs/I Cath-S” value (cathepsin S) is reported as 225 M⁻¹ s⁻¹ and the “kobs/I Cath-K” value (cathepsin K) is reported as less than 200 M⁻¹ s⁻¹. The weighted colocalization coefficient ([1]; single cells analysis, 68 single cells) was 0.635 and the weighted colocalization coefficient ([1]; whole pictures analysis, 7 images) was 0.646.
